One may read the inhibition as the percentage by which the read-out fell short of the control. A lower inhibition goes with a response near the control. The term EC50 denotes the concentration needed to bring the measured effect to its halfway point. A low value points to an effect from little substance.

The assay has as its target T1, Edg-1/S1P1 receptor (Homo sapiens, UniProt P21453).
T1 construct: expressed in transfected cells; host or cells: human osteogenic sarcoma U2OS cells: Edg-1 Transfluor U2OS WT Clone #37 (assay I), Edg-1 Transfluor U2OS Clone #3 (assay II)
Nature of the assay: In vitro cell based receptor activation assay - Transfluor assay (assay I or II; beta-arrestin GFP relocalization after S1P stimulation). The conditions noted are these: for inhibition at 3.7 µM: at 3.70 μM (titrated from top concentration 100 μM); for inhibition at 3.5 µM: at 3.50 μM (titrated from top concentration 10 μM). From the text: The following assays can be used to measure the effects of the compounds of the present invention as S1P1/Edg1 inhibitors.
I. In Vitro Cell Based Receptor Activation Assay-Transfluor Assay
This cell-based assay was designed to assess the ability of small molecule antagonists to inhibit activation of the GPCR S1P1 in the presence of its cognate ligand S1P. The assay used technology initially developed by Norak Biosciences (Xsira Pharmaceutical) and presently owned by Molecular Devices. A human osteogenic sarcoma (U2OS) cell line overexpressing the Edg-1/S1P1) receptor as well as a beta-arrestin/green fluorescent protein (GFP) construct hereafter termed Edg-1 Transfluor U2OS WT Clone #37 was employed.
Using a high content screening approach (Cellomics Arrayscan), receptor activity was measured by assessment of the relocalization of beta-arrestin GFP in response to stimulation of Edg-1 by SIP. Specifically, Edg-1 Transfluor U2OS WT Clone #37 cells were plated at a density of 6250 cells in 40 μL medium per well in 384 well plastic bottomed microtiter plates (BD Falcon) and incubated overnight at 37° C./5% CO2. Prior to screening, compounds were dissolved in 100% dimethyl sulfoxide (DMSO) to a final stock concentration of 10 mM. Compounds were then serially diluted at 30× final concentration in Edg-1 Transfluor cell growth medium containing […] using the Tecan Genesis instrument. These 30× plates were then diluted to 6× final concentration with Edg-1 Transfluor growth medium just prior to dosing. Cells were then dosed with 10 μL per well of 6× compound dilutions or 6% DMSO and pre-incubated for 15 minutes at room temperature. Cell plates were dosed with 10 μL per well 6× S1P Edg-1 Transfluor growth medium, then incubated for 45 minutes at 37° C./5% CO2. Final concentration in the well of DMSO was 1%, compound was IX (3-fold, 9 point IC50 dilutions starting at 100 μM final concentration), and either 375 nM or […] SIP ligand. Cell plates were then fixed by adding 50 μL per well of 5% formaldehyde in 1× Dulbecco's phosphate buffered saline (DPBS) directly and incubating for 30 minutes at room temperature in darkness. Fixative was removed and replaced with 50 μL per well of 1×DPBS, after which cells were stained with 10 μg/mL final concentration of Hoechst 33342 (Molecular Probes) for 15 minutes at room temperature in darkness. Stain was then removed from the plates and replaced with 50 μL per well of 1×DPBS using the BioTek ExL405 plate washer. Plates were then sealed and analysed on the Cellomics Arrayscan using the GPCR signalling algorithm. EC50 values were then calculated using IDBS ActivityBase software.
II. In Vitro Cell Based Receptor Activation Assay-Transfluor Assay
This cell-based assay was designed to assess the ability of small molecule antagonists to inhibit activation of the GPCR S1P1 in the presence of its cognate ligand S1P. The assay used technology initially developed by Norak Biosciences (Xsira Pharmaceutical) and presently owned by Molecular Devices (MDS Analytical Technologies). A human osteogenic sarcoma (U2OS) cell line overexpressing the Edg-1/S1P1) receptor as well as a beta-arrestin/green fluorescent protein (GFP) construct hereafter termed Edg-1 Transfluor U2OS Clone #3 was employed.
Using a high content screening approach (Molecular Devices Image Express), receptor activity was measured by assessment of the relocalization of beta-aiTestin GFP in response to stimulation of Edg-1 by S1P. Specifically, Edg-1 Transfluor U2OS Clone #3 cells were plated at a density of 6250 cells in 44 μL medium per well in 384 well plastic bottomed microtiter plates (BD Falcon) and incubated overnight at 37° C./5% CO2. Prior to screening, compounds were dissolved in 100% dimethyl sulfoxide (DMSO) to a final stock concentration of 10 mM. Compounds were then serially diluted at 10× final concentration in Edg-1 Transfluor cell growth medium containing 6% DMSO using the BioMek instrument. […]

T1 sequence (P21453 whole entry): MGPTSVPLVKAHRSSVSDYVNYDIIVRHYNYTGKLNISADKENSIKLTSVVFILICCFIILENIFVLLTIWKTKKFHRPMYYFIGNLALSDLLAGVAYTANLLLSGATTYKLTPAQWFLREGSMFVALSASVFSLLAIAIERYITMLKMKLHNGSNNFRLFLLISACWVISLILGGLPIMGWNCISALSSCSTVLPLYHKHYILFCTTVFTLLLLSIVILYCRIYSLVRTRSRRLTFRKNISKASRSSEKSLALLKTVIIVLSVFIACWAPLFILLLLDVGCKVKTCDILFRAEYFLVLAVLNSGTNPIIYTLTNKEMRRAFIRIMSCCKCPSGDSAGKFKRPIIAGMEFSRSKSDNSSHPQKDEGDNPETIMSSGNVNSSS

In turn, `CCn1c([C@@H](C)NS(=O)(=O)C2CCCC2)nc2ccc(C(F)(F)F)cc21` [Example 28, N-{(1R)-1-[1-Ethyl-6-(trifluoromethyl)-1H-benzimidazol-2-yl]ethyl} cyclopentanesulfonamide] came in with an inhibition at 3.7 µM of 66.1%.
For the compound `CCn1c([C@@H](C)NS(=O)(=O)c2ccc(Cl)cc2)nc2cc(C(F)(F)F)c(Cl)cc21` [Example 85, 4-Chloro-N-{(1R)-1-[6chloro-1-ethyl-5-(trifluoromethyl)-1H-benzimidazol-2-yl]ethyl}benzenesulfonamide], at 3.7 µM the inhibition was 44.9%.
Compound `CCn1c([C@@H](C)NS(=O)(=O)c2ccc(F)cc2)nc2cnccc21` [Example 104, 4-Fluoro-N-[(1R)-1-(1-ethyl-1H-imidazo[4,5-c]pyridin-2-yl)ethyl]benzenesulfonamide] gave an inhibition at 3.5 µM of 90.3%.
Take `CCn1c([C@@H](C)NS(=O)(=O)c2ccc(F)c(F)c2F)nc2ccc(C(F)(F)F)cc21` [Example 34]: the inhibition at 3.5 µM was 95.3%.
The compound `CCn1c(C(C)NS(=O)(=O)c2ccc(Cl)cc2)nc2c(OC)nccc21` (centres unmarked) [Example 95, 4-chloro-N-[1-(1-ethyl-4-methoxy-1H-imidazo[4,5-c]pyridin-2-yl)ethyl]benzenesulfonamide] showed an inhibition at 3.5 µM of 47.7%.
On the same count and under the same terms, to `CCn1c([C@@H](C)NS(=O)(=O)c2ccc(Cl)cc2)nc2cnc(C3CC3)cc21` [Example 98, 4-Chloro-N-[(1R)-1-(6-cyclopropyl-1-ethyl-1H-imidazo[4,5-c]pyridin-2-yl)ethyl]benzenesulfonamide] belongs 88.2%; to `CCn1c([C@@H](C)NS(=O)(=O)c2ccc(C#N)cc2)nc2ncc(C(F)(F)F)cc21` [Example 180, 4-Cyano-N-{(1R)-1-[1-ethyl-6-(trifluoromethyl)-1H-imidazo[4,5-b]pyridin-2-yl]ethyl}benzenesulfonamide], 91.1%; to `CCn1c([C@@H](C)NS(=O)(=O)c2ccc(F)c(C)c2)nc2ccc(C(F)(F)F)cc21` [Example 30, N-{(1R)-1-[1-Ethyl-6-(trifluoromethyl)-1H-benzimidazol-2-yl]ethyl}-4-fluoro-3-methylbenzenesulfonamide], 94.6%.
`CCn1c([C@@H](C)NS(=O)(=O)c2ccc(NC(C)=O)c(C)c2)nc2ccc(C(F)(F)F)cc21` [Example 29, N-{4-[({(1R)-1-[1-Ethyl-6-(trifluoromethyl)-1H-benzimidazol-2-yl]ethyl}amino)sulfonyl]-2-methylphenyl}acetamide] displayed an inhibition at 3.7 µM of 21.8%.
On to `CC(NS(=O)(=O)c1ccc(Cl)cc1)c1nc2ccccc2n1CC1CC1` (centres unmarked) [Example 18, 4-Chloro-N-{1-[1-(cyclopropylmethyl)-1H-benzimidazol-2-yl]ethyl}-benzenesulfonamide], for which the inhibition at 3.7 µM turned out to be 100%. The same compound gave an EC50 (one or the other of the two Transfluor assays, Edg-1 Transfluor U2OS cells, S1P ligand) of 896 nM.
Compound `CCn1c([C@@H](C)NS(=O)(=O)c2ccc(Cl)cc2)nc2ncc(C(F)(F)F)cc21` [Example 88, 4-Chloro-N-{(1R)-1-[1-ethyl-6-(trifluoromethyl)-1H-imidazo[4,5-b]pyridin-2-yl]ethyl}benzenesulfonamide] showed an inhibition at 3.55 µM (at 3.55 μM) of 82.6%.
Consider `CCn1c([C@@H](C)NS(=O)(=O)c2ccc(C#N)nc2)nc2cnc(OC)cc21` [Example 151, (R)-6-Cyano-N-(1-(1-ethyl-6-methoxy-1H-imidazo[4,5-c]pyridin-2-yl)ethyl)pyridine-3-sulfonamide], for which the inhibition at 3.5 µM is 91.7%.
Still for that read-out and setting: to `CCn1c(C(C)(C)NS(=O)(=O)c2ccc(C#N)nc2)nc2ccc(C(F)(F)F)cc21` [Example 140, 6-Cyano-N-(2-(1-ethyl-6-(trifluoromethyl)-1H-0 benzo[d]imidazol-2-yl)propan-2-yl)pyridine-3-sulfonamide] belongs 82.9%.
For the compound `CCn1c(C(C)NS(=O)(=O)c2ccc(Cl)cc2)nc2cnccc21` (centres unmarked) [Example 13, 4-Chloro-N-[1-(1-ethyl-1H-imidazo[4,5-c]pyridin-2-yl)ethyl]benzene sulfonamide], the inhibition at 3.7 µM stood at 72.8%.
`CCn1c([C@@H](C)NS(=O)(=O)c2ccc(C(=O)NC)nc2)nc2ccc(C(F)(F)F)cc21` [Example 172, (R)-5-[1-(1-Ethyl-6-trifluoromethyl-1H-benzoimidazol-2-yl)-ethylsulfamoyl]-pyridine-2-carboxylic acid methylamide] had an inhibition at 3.5 µM of 69.1%.
The compound `CCn1c(C(C)NS(=O)(=O)c2ccc(Cl)cc2)nc2ncccc21` (centres unmarked) [Example 12, 4-Chloro-N-[1-(1-ethyl-1H-imidazo[4,5-b]pyridin-2-yl)-ethyl]-benzenesulfonamide] showed an inhibition at 3.5 µM of 93.3%.
Same read-out and setting: to `CCn1c([C@H](C)NS(=O)(=O)c2ccc(Cl)cc2)nc2ccc(C(F)(F)F)cc21` [Example 100, 4-Chloro-N-{(1S)-1-[1-ethyl-6-(trifluoromethyl)-1H-benzimidazol-2-yl]ethyl}benzenesulfonamide] belongs 84.6%.
Same read-out and setting: to `CCn1c([C@@H](C)NS(=O)(=O)c2ccc(Cl)cc2)nc2cc(C(F)(F)F)ccc21` [Example 92, 4-Chloro-N-{(1R)-1-[1-ethyl-5-(trifluoromethyl)-1H-benzimidazol-2-yl]ethyl}benzenesulfonamide] belongs 86.1%; to `CCn1c([C@@H](C)NS(=O)(=O)c2ccc(F)nc2)nc2ccc(C(F)(F)F)cc21` [Example 107, (R)-N-(1-(1-Ethyl-6-(trifluoromethyl)-1H-benzo[d]imidazol-2-yl)ethyl)-6-fluoropyridine-3-sulfonamide], 92.5%; to `CCn1c([C@@H](C)NS(=O)(=O)c2ccc(F)c(C#N)c2)nc2ccc(C(F)(F)F)cc21` [Example 27, 3-Cyano-N-{(1R)-1-[1-ethyl-6-(trifluoromethyl)-1H-benzimidazol-2-yl]ethyl}-4-fluorobenzenesulfonamide], 85.7%.
Same read-out and setting: to `CCn1c([C@@H](C)NS(=O)(=O)c2ccc(C(=O)OC)n2C)nc2ccc(C(F)(F)F)cc21` [Example 40, (R)-methyl 5-(N-(1-(1-ethyl-6-(trifluoromethyl)-1H-benzo[d]imidazol-2-yl)ethyl)sulfamoyl)-1-methyl-1H-pyrrole-2-carboxylate] belongs 97.5%; to `CCn1c(C(C)(C)NS(=O)(=O)c2ccccc2)nc2ccc(C(F)(F)F)cc21` [Example 139, N-{(1R)-1-[1-Ethyl-6-(trifluoromethyl)-1H-benzimidazol-2-yl]-1-methyl-ethyl}benzenesulfonamide], 88.3%.
Compound `CCn1c([C@@H](C)NS(=O)(=O)c2ccc(Cl)cc2)nc2cc(C3CC3)ccc21` [Example 84, 4-Chloro-N-[(1R)-1-(5-cyclopropyl-1-ethyl-1H-benzimidazol-2-yl)ethyl]benzenesulfonamide] returned an inhibition at 3.7 µM of 59.3%.
On to `CCn1c([C@@H](C)NS(=O)(=O)c2ccc(OC)c(OC)c2)nc2ccc(C(F)(F)F)cc21` [Example 124, N-{(1R)-1-[1-Ethyl-6-(trifluoromethyl)-1H-benz-imidazol-2-yl]ethyl}-3,4-di-methoxybenzenesulfonamide], for which at 3.5 µM the inhibition was 79.4%.
In the case of `CCn1c(C(NS(=O)(=O)c2ccc(Cl)cc2)C(C)C)nc2ccccc21` (centres unmarked) [Example 3, 4-Chloro-N-[1-(1-ethyl-1H-benzimidazol-2-yl)-2-methyl-propyl]benzenesulfonamide], 3.7 µM produced 59% inhibition.

(Values after US20100029643A1 (ASTRAZENECA AB, priority 2006, published 2010).)
